Key:
[1] = system: p-Src in T315I KCL-22 CML cells; assay: Western blot p-Src, T315I KCL-22 CML cells; format: cell-based, human; details: 1.0 μM
Procedure: (§1) Human KCL-22 CML cells were obtained from the American Type Culture Collection (ATCC). Cells were cultured in RPMI-1640 media containing 10% fetal bovine serum (FBS). Imatinib-resistant human KCL-22 CML cells expressing the T315I mutant Bcr-Abl (KCL-22M) were derived from human KCL-22 CML cells (Yuan et al., 2010). Cells were grown in RPMI 1640 media supplemented with 10% FBS. Monoclonal antibodies to Abl protein and phosphotyrosine (p-Y) were obtained from BD Biosciences (San Diego, Calif.). Polyclonal antibodies to p-Stat5 (Y694) and p-Src family (Y419) were obtained from Cell Signaling Technologies (Cambridge, Mass.). Polyclonal antibodies to Stat5 were from Santa Cruz Biotechnology (Santa Cruz, Calif.). Monoclonal antibody to Src was obtained from Millipore (Billerica, Mass.).
(§2) Western analyses were performed as described previously with minor modification (Nam et al., 2005b). Briefly, KCL-22 CML and T315I KCL-22 CML cells were treated with IRDs. Whole-cell lysates were resolved by SDS-PAGE and immunoblotted with specific antibodies. Primary phospho-specific antibodies were incubated in TBS (pH 7.5) with 0.1% Tween-20 and 5% BSA with gentle agitation overnight at 4° C. […] Positive immuno-reactive proteins were detected using the ECL system (Pierce, Rockford, Ill.). […]

ABL1 = ABL1 (Homo sapiens, UniProt P00519); assay: in vitro kinase assay, recombinant ABL1; format: biochemical; details: ABL versus Src, higher concentration for ABL
Sequence of ABL1 (P00519 whole entry): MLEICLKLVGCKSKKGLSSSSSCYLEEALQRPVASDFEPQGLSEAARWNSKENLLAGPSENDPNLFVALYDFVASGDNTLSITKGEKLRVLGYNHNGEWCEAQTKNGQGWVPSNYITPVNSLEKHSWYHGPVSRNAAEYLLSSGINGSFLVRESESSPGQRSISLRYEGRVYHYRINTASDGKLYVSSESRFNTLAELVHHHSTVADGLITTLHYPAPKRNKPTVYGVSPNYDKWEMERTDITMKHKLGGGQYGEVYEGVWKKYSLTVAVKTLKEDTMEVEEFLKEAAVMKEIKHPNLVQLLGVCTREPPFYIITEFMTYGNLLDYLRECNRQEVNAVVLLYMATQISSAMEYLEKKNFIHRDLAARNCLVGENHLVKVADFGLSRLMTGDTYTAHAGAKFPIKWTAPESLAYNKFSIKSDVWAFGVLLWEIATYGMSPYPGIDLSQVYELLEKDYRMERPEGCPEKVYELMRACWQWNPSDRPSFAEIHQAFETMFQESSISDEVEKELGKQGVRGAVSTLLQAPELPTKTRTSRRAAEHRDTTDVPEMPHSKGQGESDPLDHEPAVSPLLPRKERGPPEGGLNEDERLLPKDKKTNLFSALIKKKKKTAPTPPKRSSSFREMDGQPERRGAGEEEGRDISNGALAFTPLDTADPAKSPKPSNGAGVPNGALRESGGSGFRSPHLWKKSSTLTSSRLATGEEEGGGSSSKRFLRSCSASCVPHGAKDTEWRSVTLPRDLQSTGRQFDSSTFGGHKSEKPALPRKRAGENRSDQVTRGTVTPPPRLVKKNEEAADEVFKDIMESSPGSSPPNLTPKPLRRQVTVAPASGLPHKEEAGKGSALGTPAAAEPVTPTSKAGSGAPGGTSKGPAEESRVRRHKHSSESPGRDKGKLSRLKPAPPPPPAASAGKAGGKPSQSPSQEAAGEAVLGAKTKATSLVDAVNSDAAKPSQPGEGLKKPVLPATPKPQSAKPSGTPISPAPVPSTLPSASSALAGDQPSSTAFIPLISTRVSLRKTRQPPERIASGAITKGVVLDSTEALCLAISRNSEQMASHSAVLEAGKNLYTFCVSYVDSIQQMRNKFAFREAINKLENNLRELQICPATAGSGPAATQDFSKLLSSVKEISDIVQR
Procedure: The in vitro kinase assays of an IRD (IRD Nos. 10, 11, 13, 61, 70, 71, 79, 80, 83˜87 and 176) were carried out using recombinant proteins according to the procedure disclosed in Nam 2012 (Nam, S., Xie, J., Perkins, A., Ma, Y., Yang, F., Wu, J., Wang, Y., Xu, R. Z., Huang, W., Horne, D. A., and Jove, R. (2012) Novel synthetic derivatives of the natural product berbamine inhibit Jak2/Stat3 signaling and induce apoptosis of human melanoma cells, Molecular oncology), which is hereby incorporated by reference in its entirety, as if fully set forth herein.

[2] = system: p-Bcr-Abl in KCL-22 CML cells; assay: Western blot p-Bcr-Abl, KCL-22 CML cells; format: cell-based, human; details: 4 hours
Procedure: as §1, §2

[3] = system: p-Src in KCL-22 CML cells; assay: Western blot p-Src, KCL-22 CML cells; format: cell-based, human; details: 1.0 μM
Procedure: as §1, §2

[4] = system: p-Stat5 (Y694) in KCL-22 CML cells; assay: Western blot p-Stat5, KCL-22 CML cells; format: cell-based, human; details: 4 hours
Procedure: as §1, §2

[5] = system: p-Bcr-Abl in T315I KCL-22 CML cells; assay: Western blot p-Bcr-Abl, T315I KCL-22 CML cells; format: cell-based, human; details: 4 hours
Procedure: as §1, §2

[6] = system: p-Stat5 (Y694) in T315I KCL-22 CML cells; assay: Western blot p-Stat5, T315I KCL-22 CML cells; format: cell-based, human; details: 4 hours
Procedure: as §1, §2

[7] = system: Imatinib-resistant human KCL-22 CML cells expressing the T315I mutant Bcr-Abl; assay: Drug resistance of imatinib-resistant T315I KCL-22 CML cells; format: cell-based

SMILES	autophosphorylation of Src [1]	concentration inhibiting ABL kinase activity relative to Src kinase activity in vitro (ABL1)	concentration that reduced levels of p-Bcr-Abl [2]	autophosphorylation of Src [3]	tyrosyl phosphorylation of Stat5 ([4]; 5 μM)	total Stat5 levels [4]	concentration that reduced levels of p-Bcr-Abl [5]	tyrosyl phosphorylation of Stat5 ([6]; 5 μM)	total Stat5 levels [6]	resistance of the cells to the drug [7]
Cl.Cl.O=C1Nc2cc(Br)ccc2C1=C1Nc2ccccc2C1=NOCCN1CCNCC1 [compound 87]	strong reduction	about 15 fold	higher than 0.5 μM	strong reduction	substantially inhibited	unchanged	higher than 0.5 μM	substantially inhibited	unchanged	
Cc1cn(-c2cc(NC(=O)c3ccc(C)c(Nc4nccc(-c5cccnc5)n4)c3)cc(C(F)(F)F)c2)cn1 [nilotinib]										resist

From patent US11524937B2, “Indirubin derivatives, and uses thereof” (CITY OF HOPE, priority 2012, dated 2022)
